From paper PMC9886550, “Molecular mechanism of topoisomerase poisoning by the peptide antibiotic albicidin” (Nature Catalysis, 2023)

Format: physicochemical
Conditions: 100 µM in Topo IV assays
Experimental: Supplementary Figure 11. Activity of albicidin and Albi-1/2/3 on E. coli topoisomerase IV. a. Plasmid relaxation activity of E. coli topo IV in the presence of albicidin, Albi-1, Albi-2 and Albi-3. First lane: negatively supercoiled pBR322; second lane: innate relaxation activity of E. coli topo IV (12.5 nM); third lane: effect of 20 µM CFX; subsequent lanes: effect of increasing compound concentration (0.1, 1, 10, 100 […]
higher concentration. b. Cleavage activity of E. coli topo IV in the presence of albicidin, Albi-1, Albi-2 and Albi-3. First lane: negatively supercoiled pBR322; second lane: innate cleavage activity of E. coli topo IV (15 nM); third lane: effect of 20 µM CFX; subsequent lanes: effect of increasing compound concentration (0.1, 1, 10, 100 µM). […]
concentration. All experiments were carried out in triplicates and representative gels […]
(1 picture or pasted object on this page, not shown here)

Question: With `COc1c(NC(=O)c2ccc(NC(=O)c3ccc(NC(=O)[C@H](Cc4c[nH]nn4)NC(=O)c4ccc(NC(=O)c5ccc6nc(C)ccc6c5)cc4)cn3)c(OC)c2O)ccc(C(=O)O)c1O` [Albi-3] as the compound, how does the solubility in assay read?
Answer: solubility issues
